Measurements from US10626115B2, “Fused pyrimidinone and triazinone derivatives containing bridged nitrogen, their process of preparation and their therapeutic uses as antifungal and/or antiparasitic agents” (UNIVERSITE DE NANTES, priority 2015, dated 2020).
In brackets after ≈: the same amount, converted by molar mass.

Legend:
[1] = test system: promastigote stage of a Leishmania mexicana strain; experiment: Anti-Trypanosomatidae activity, promastigote stage, spectrofluorimetric microdilution; type: cell-based; settings: for IC50: Leishmania mexicana, promastigote stage, 50% of control growth, read-out: L. mexicana (IC50 μM)
Description: Compounds were evaluated on the promastigote stage of a Leishmania mexicana strain using a spectrofluorimetric microdilution method. Inhibitory concentration 50 (IC50) was the concentration that inhibited 50% of the control growth.

[2] = test system: A. fumigatus susceptible strain ASFU35A; experiment: Antifungal susceptibility, spectrofluorimetric microdilution, ASFU35A; type: cell-based, Aspergillus fumigatus; settings: Aspergillus fumigatus, read-out: MIC values ASFU35A
Description: (§1) Eleven strains of A. fumigatus with various itraconazole susceptibility were used: • Five susceptible strains: ASFU7, ASFU35A, ASFU38A, ASFU76 and ASFU78. • Six itraconazole-resistant strains: ASFU77 (erg11 mutation), ASFU13, ASFU17, ASFU19, ASFU20, ASFU23.
(§2) Antifungal susceptibility was evaluated with a spectrofluorimetric microdilution method. MIC was the concentration that was able to inhibit 80% of fluorescence measured in the control wells.

[3] = test system: A. fumigatus susceptible strain ASFU78; experiment: Antifungal susceptibility, spectrofluorimetric microdilution, ASFU78; type: cell-based, Aspergillus fumigatus; settings: Aspergillus fumigatus, read-out: MIC values ASFU78
Description: as §1, §2

[4] = test system: A. fumigatus susceptible strain ASFU76; experiment: Antifungal susceptibility, spectrofluorimetric microdilution, ASFU76; type: cell-based, Aspergillus fumigatus; settings: Aspergillus fumigatus, read-out: MIC values ASFU76
Description: as §1, §2

[5] = test system: A. fumigatus susceptible strain ASFU38A; experiment: Antifungal susceptibility, spectrofluorimetric microdilution, ASFU38A; type: cell-based, Aspergillus fumigatus; settings: Aspergillus fumigatus, read-out: MIC values ASFU38A
Description: as §1, §2

[6] = test system: fluconazole-susceptible C. albicans strain: CAAL93; experiment: Antifungal susceptibility, spectrofluorimetric microdilution, CAAL93; type: cell-based; settings: Candida albicans, read-out: MIC values CAAL93
Description: (§3) Eight strains of Candida spp. with various azoles-susceptibilities were used: • One fluconazole-susceptible C. albicans strain: CAAL93 • Two fluconazole-resistant C. albicans strains: CAAL111 (efflux pump) and CAAL117 (erg11 mutations+voriconazole-resistant) • five fluconazole-resistant Candida non albicans strains: C. krusei (CAKR7, CAKR8), C. glabrata (CAGL2), C. parapsilosis s.l. (CAPA1, CAPA2).
(§4) Antifungal susceptibility was evaluated with a spectrofluorimetric microdilution method.

[7] = test system: A. fumigatus susceptible strain ASFU7; experiment: Antifungal susceptibility, spectrofluorimetric microdilution, ASFU7; type: cell-based, Aspergillus fumigatus; settings: Aspergillus fumigatus, read-out: MIC values ASFU7
Description: as §1, §2

[8] = test system: A. fumigatus itraconazole-resistant strain ASFU77 (erg11 mutation); experiment: Antifungal susceptibility, spectrofluorimetric microdilution, ASFU77; type: cell-based, Aspergillus fumigatus; settings: for MIC: Aspergillus fumigatus, read-out: MIC values ASFU77
Description: as §1, §2

[9] = test system: A. fumigatus itraconazole-resistant strain ASFU20; experiment: Antifungal susceptibility, spectrofluorimetric microdilution, ASFU20; type: cell-based, Aspergillus fumigatus; settings: Aspergillus fumigatus, read-out: MIC values ASFU20
Description: as §1, §2

[10] = test system: A. fumigatus itraconazole-resistant strain ASFU23; experiment: Antifungal susceptibility, spectrofluorimetric microdilution, ASFU23; type: cell-based, Aspergillus fumigatus; settings: Aspergillus fumigatus, read-out: MIC values ASFU23
Description: as §1, §2

[11] = test system: A. fumigatus itraconazole-resistant strain ASFU17; experiment: Antifungal susceptibility, spectrofluorimetric microdilution, ASFU17; type: cell-based, Aspergillus fumigatus; settings: Aspergillus fumigatus, read-out: MIC values ASFU17
Description: as §1, §2

[12] = test system: A. fumigatus itraconazole-resistant strain ASFU19; experiment: Antifungal susceptibility, spectrofluorimetric microdilution, ASFU19; type: cell-based, Aspergillus fumigatus; settings: Aspergillus fumigatus, read-out: MIC values ASFU19
Description: as §1, §2

[13] = test system: fluconazole-resistant C. krusei (CAKR8); experiment: microbe, parasite or virus in culture; type: cell-based; settings: Pichia kudriavzevii, read-out: MIC values CAKR8
Description: as §3, §4

[14] = test system: fluconazole-resistant C. krusei (CAKR7); experiment: microbe, parasite or virus in culture; type: cell-based; settings: Pichia kudriavzevii, read-out: MIC values CAKR7
Description: as §3, §4

[15] = test system: fluconazole-resistant C. albicans strain CAAL111 (efflux pump); experiment: microbe, parasite or virus in culture; type: cell-based; settings: Candida albicans, read-out: MIC values CAAL111
Description: as §3, §4

[16] = test system: fluconazole-resistant C. glabrata (CAGL2); experiment: microbe, parasite or virus in culture; type: cell-based; settings: Nakaseomyces glabratus, read-out: MIC values CAGL2
Description: as §3, §4

[17] = test system: fluconazole-resistant C. albicans strain CAAL117 (erg11 mutations+voriconazole-resistant); experiment: microbe, parasite or virus in culture; type: cell-based; settings: for MIC: Candida albicans, read-out: MIC values CAAL117; for fold more active than voriconazole against CAAL117: compared with voriconazole
Description: as §3, §4

[18] = test system: A. fumigatus itraconazole-resistant strain ASFU13; experiment: Antifungal susceptibility, spectrofluorimetric microdilution, ASFU13; type: cell-based, Aspergillus fumigatus; settings: Aspergillus fumigatus, read-out: MIC values ASFU13
Description: as §1, §2

CCOC(=O)c1cn2c(=O)n([C@H](C)[C@](O)(Cn3cncn3)c3ccc(F)cc3F)ccc2n1 [Compound 37, Ethyl-6-[(1R,2R)-2-(2,4-difluorophenyl)-2-hydroxy-1-methyl-3-(1H-1,2,4-triazol-1-yl)propyl]-5-oxo-imidazo[1,2-c]pyrimidine-2-carboxylate]
melting point: 148 to 149 °C

C[C@@H](n1ccc2nc(C#N)cn2c1=O)[C@](O)(Cn1cncn1)c1ccc(F)cc1F [Compound 38, 6-[(1R,2R)-2-(2,4-Difluorophenyl)-2-hydroxy-1-methyl-3-(1H-1,2,4-triazol-1-yl)propyl]-5-oxo-imidazo[1,2-c]pyrimidine-2-carbonitrile]
melting point: 132 to 133 °C

C[C@@H](n1ccc2nc(-c3ccc(F)cc3)cn2c1=O)[C@](O)(Cn1cncn1)c1ccc(F)cc1F [Compound 30, 6-[(1R,2R)-2-(2,4-Difluorophenyl)-2-hydroxy-1-methyl-3-(1H-1,2,4-triazol-1-yl)propyl]-2-(4-fluorophenyl)imidazo[1,2-c]pyrimidin-5-one]
melting point: 114 to 115 °C | effectiveness against the promastigote stage of L. Mexicana, in words [1]: effective | IC50 [1]: 8.1 ± 1.6 µM

C[C@@H](n1ccc2nc(-c3ccc(Cl)cc3)cn2c1=O)[C@](O)(Cn1cncn1)c1ccc(F)cc1F [Compound 31, 6-[(1R,2R)-2-(2,4-Difluorophenyl)-2-hydroxy-1-methyl-3-(1H-1,2,4-triazol-1-yl)propyl]-2-(4-chlorophenyl)imidazo[1,2-c]pyrimidin-5-one]
MIC [2]: 5.81 ± 0.5 µg/mL (≈ 11.7 µM) | MIC [3]: 5.72 ± 0.39 µg/mL (≈ 11.5 µM) | MIC [4]: 5.7 ± 0.51 µg/mL (≈ 11.5 µM) | MIC [5]: 5.59 ± 0.15 µg/mL (≈ 11.2 µM) | MIC [6]: < 0.001 µg/mL | melting point: 158 to 159 °C | MIC [7]: 5.04 µg/mL (≈ 10.1 µM) | MIC values against ITRA-resistant isolate carrying M220T mutation (ASFU77), in words [8]: in the micromolar range | MIC [8]: 5.99 ± 0.33 µg/mL (≈ 12.1 µM)

C[C@@H](n1ncc2cc(Br)cn2c1=O)[C@](O)(Cn1cncn1)c1ccc(F)cc1F [Compound 45, 7-Bromo-3-[(1R,2R)-2-(2,4-difluorophenyl)-2-hydroxy-1-methyl-3-(1,2,4-triazol-1-yl)propyl]-3H-pyrrolo[1,2-d][1,2,4]triazin-4-one]
melting point: 142 to 143 °C

C[C@@H](n1ncc2cccn2c1=O)[C@](O)(Cn1cncn1)c1ccc(F)cc1F [Compound 44, 3-[(1R,2R)-2-(2,4-Difluorophenyl)-2-hydroxy-1-methyl-3-(1,2,4-triazol-1-yl)propyl]-3H-pyrrolo[1,2-d][1,2,4]triazin-4-one]
MIC [2]: 21.4 ± 10.1 µg/mL (≈ 55.3 µM) | MIC [3]: 19.7 ± 12.9 µg/mL (≈ 51 µM) | MIC [4]: 18.1 ± 10.1 µg/mL (≈ 46.9 µM) | MIC [9]: 8.04 µg/mL (≈ 20.8 µM) | MIC [5]: 55.1 ± 9.96 µg/mL (≈ 143 µM) | MIC [10]: 9.54 µg/mL (≈ 24.7 µM) | MIC [11]: > 38 µg/mL | MIC [6]: < 0.001 µg/mL | melting point: 131 to 132 °C | MIC [12]: > 38 µg/mL | MIC [7]: 24.3 ± 9.57 µg/mL (≈ 62.9 µM) | MIC [13]: 1.15 µg/mL (≈ 2.98 µM) | MIC [14]: 0.625 ± 0.057 µg/mL (≈ 1.62 µM) | MIC [15]: 0.48 ± 0.199 µg/mL (≈ 1.24 µM) | MIC [16]: 0.099 ± 0.004 µg/mL (≈ 0.256 µM) | MIC [17]: 0.79 ± 0.092 µg/mL (≈ 2.04 µM) | MIC [18]: 4.06 µg/mL (≈ 10.5 µM) | MIC [8]: 52.8 ± 4.54 µg/mL (≈ 137 µM)

C[C@@H](n1ccc2nc(-c3ccc(Br)cc3)cn2c1=O)[C@](O)(Cn1cncn1)c1ccc(F)cc1F [Compound 32, 6-[(1R,2R)-2-(2,4-Difluorophenyl)-2-hydroxy-1-methyl-3-(1H-1,2,4-triazol-1-yl)propyl]-2-(4-bromophenyl)imidazo[1,2-c]pyrimidin-5-one]
melting point: 161 to 162 °C

C[C@@H](n1ccc2nc(-c3ccc(C(F)(F)F)cc3)cn2c1=O)[C@](O)(Cn1cncn1)c1ccc(F)cc1F [Compound 33, 6-[(1R,2R)-2-(2,4-Difluorophenyl)-2-hydroxy-1-methyl-3-(1H-1,2,4-triazol-1-yl)propyl]-2-[(4-trifluoromethyl)phenyl]imidazo[1,2-c]pyrimidin-5-one]
melting point: 196 to 197 °C

C[C@@H](n1ncc2cc(-c3ccccc3)cn2c1=O)[C@](O)(Cn1cncn1)c1ccc(F)cc1F [Compound 47, 3-[(1R,2R)-2-(2,4-Difluorophenyl)-2-hydroxy-1-methyl-3-(1,2,4-triazol-1-yl)propyl]-7-phenyl-3H-pyrrolo[1,2-d][1,2,4]triazin-4-one]
MIC [2]: 41.3 ± 8.61 µg/mL (≈ 89.4 µM) | MIC [3]: 54.7 ± 12.1 µg/mL (≈ 118 µM) | MIC [4]: 48.4 ± 7.95 µg/mL (≈ 105 µM) | MIC [5]: 58.4 ± 15.7 µg/mL (≈ 126 µM) | MIC [6]: < 0.001 µg/mL | melting point: 146 to 147 °C | MIC [7]: 44.1 ± 7.76 µg/mL (≈ 95.3 µM) | MIC [13]: 0.014 µg/mL (≈ 0.0303 µM) | MIC [14]: 0.013 ± 0.001 µg/mL (≈ 0.0281 µM) | MIC [15]: 0.016 ± 0.001 µg/mL (≈ 0.0346 µM) | MIC [16]: 0.008 ± 0.005 µg/mL (≈ 0.0173 µM) | MIC [17]: 0.014 ± 0.002 µg/mL (≈ 0.0303 µM) | fold more active than voriconazole against CAAL117 [17]: 100 fold | MIC [8]: 64.8 ± 7.46 µg/mL (≈ 140 µM)

N=C(N)c1ccc(OCCCCCOc2ccc(C(=N)N)cc2)cc1 [Pentamidine, reference compound]
IC50 [1]: 0.34 ± 0.03 µM

C[C@@H](n1ccc2nc(-c3nccs3)cn2c1=O)[C@](O)(Cn1cncn1)c1ccc(F)cc1F [Compound 36, 6-[(1R,2R)-2-(2,4-Difluorophenyl)-2-hydroxy-1-methyl-3-(1H-1,2,4-triazol-1-yl)propyl]-2-(thiazol-2-yl)imidazo[1,2-c]pyrimidin-5-one]
melting point: 175 to 176 °C

C[C@@H](n1ccc2nccn2c1=O)[C@](O)(Cn1cncn1)c1ccc(F)cc1F [Compound 27, 6-[(1R,2R)-2-(2,4-Difluorophenyl)-2-hydroxy-1-methyl-3-(1H-1,2,4-triazol-1-yl)propyl]imidazo[1,2-c]pyrimidin-5-one]
MIC [2]: 6.96 ± 1.49 µg/mL (≈ 18 µM) | MIC [3]: 6.03 ± 0.95 µg/mL (≈ 15.6 µM) | MIC [4]: 6.76 ± 0.1 µg/mL (≈ 17.5 µM) | MIC [5]: 23 ± 21.1 µg/mL (≈ 59.6 µM) | MIC [6]: 0.014 ± 0.001 µg/mL (≈ 0.0362 µM) | melting point: 156 to 157 °C | IC50 [1]: > 100 µM | MIC [7]: 7.29 ± 0.22 µg/mL (≈ 18.9 µM) | MIC values against ITRA-resistant isolate carrying M220T mutation (ASFU77), in words [8]: in the micromolar range | MIC [8]: 6.47 ± 0.03 µg/mL (≈ 16.7 µM)

C[C@@H](n1ncc2cc(-c3ccc(C#N)cc3)cn2c1=O)[C@](O)(Cn1cncn1)c1ccc(F)cc1F [Compound 49, 4-{3-[(1R,2R)-2-(2,4-Difluorophenyl)-2-hydroxy-1-methyl-3-(1,2,4-triazol-1-yl)propyl]-4-oxo-3,4-dihydro-pyrrolo[1,2-d][1,2,4]triazin-7-yl}benzonitrile]
MIC [6]: < 0.048 µg/mL | melting point: 201 to 202 °C | MIC [13]: 0.101 ± 0.014 µg/mL (≈ 0.207 µM) | MIC [14]: 0.058 ± 0.009 µg/mL (≈ 0.119 µM) | MIC [16]: 0.025 ± 0.01 µg/mL (≈ 0.0513 µM) | MIC [17]: 0.016 ± 0.001 µg/mL (≈ 0.0328 µM) | fold more active than voriconazole against CAAL117 [17]: 100 fold

Cc1cn2c(=O)n([C@H](C)[C@](O)(Cn3cncn3)c3ccc(F)cc3F)ccc2n1 [Compound 28, 6-[(1R,2R)-2-(2,4-Difluorophenyl)-2-hydroxy-1-methyl-3-(1H-1,2,4-triazol-1-yl)propyl]-2-methylimidazo[1,2-c]pyrimidin-5-one]
melting point: 103 to 104 °C | IC50 [1]: > 100 µM
